Assay results from patent publication US4774381A, “Herbicide resistant tobacco” (E. I. Du Pont de Nemours and Company, priority 1985, dated 1988).

What was measured:
[1] = molecular target: T1, acetolactate synthase (ALS), H1 extract (Nicotiana tabacum, UniProt P09114); assay: ALS activity assay in cell extracts; format: biochemical
T1 construct: ALS activity was then assayed in extracts prepared from these cell suspension cultures; endogenous in cells; host or cells: N. tabacum cv; Xanthi cell suspension cultures (H1 parental haploid line; +/+ segregants), 0-50% ammonium sulfate fraction of the extract
T1 sequence (P09114 92-664): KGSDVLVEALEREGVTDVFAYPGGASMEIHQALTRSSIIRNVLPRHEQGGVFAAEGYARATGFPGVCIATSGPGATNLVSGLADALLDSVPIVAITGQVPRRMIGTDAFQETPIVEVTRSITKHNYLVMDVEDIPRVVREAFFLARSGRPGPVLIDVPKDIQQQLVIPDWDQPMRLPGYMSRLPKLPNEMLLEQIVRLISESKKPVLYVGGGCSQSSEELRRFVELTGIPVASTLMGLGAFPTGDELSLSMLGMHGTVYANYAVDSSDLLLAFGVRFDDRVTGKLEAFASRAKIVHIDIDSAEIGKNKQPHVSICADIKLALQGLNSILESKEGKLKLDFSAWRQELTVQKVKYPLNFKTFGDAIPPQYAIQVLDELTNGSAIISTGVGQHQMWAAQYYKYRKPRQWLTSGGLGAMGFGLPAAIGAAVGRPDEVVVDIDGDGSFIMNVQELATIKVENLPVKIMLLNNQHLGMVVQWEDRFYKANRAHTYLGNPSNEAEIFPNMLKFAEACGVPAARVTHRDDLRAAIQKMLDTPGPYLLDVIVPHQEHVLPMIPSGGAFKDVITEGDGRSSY
Method: (§1) Cell suspension cultures of normal (H1) and homozygous mutant (Isolate 16) cell lines were washed in C1 liquid medium. After washing, cells were extracted in a 100 mM potassium phosphate buffer (pH 7.5) containing 0.5 mM MgCl2, 1 mM sodium pyruvate, 0.5 mM thiamine pyrophosphate, 10 micromolar flavine-adenine dinucleotide (FAD) and 10 percent (by volume) glycerol. Polyclar AT (BDH Chemicals Ltd) was added to a final concentration of 250 mg per gram fresh weight of tissue. After centrifugation at 27,000xg for 15 minutes at 4°, an equal volume of a saturated solution of amminium sulfate was added to the supernatant fraction. The resultant precipitate (representing a 0 to 50 percent ammonium sulfate fraction) was redissolved in 100 mM potassium phosphate buffer (pH 7.5) containing 0.5 mM MgCl2, 1 mM sodium pyruvate, and salts were removed by passage through a Sephadex G-25 (Pharmacia PD-10) column.
ALS activity was assayed in a total volume of 500 microliters containing 100 microliters of the column eluate, 65 mM potassium phosphate buffer (pH 7.5) containing 10 mM MgCl2, 40 mM sodium pyruvate, 250 micromolar thiamine pyrophosphate, 23 micromolar FAD, and 1, 5, 10, 50, 100, 500 or 1000 ppb chlorsulfuron or sulfometuron-methyl. After incubation at 30° for 90 minutes, 250 microliters of 6N H2 SO4 was added to each assay tube, and the tubes were incubated at 55° for 10 minutes to terminate the enzymatic reaction and achieve complete conversion of acetolactate to acetoin. Acetoin content was then measured by a modification of the procedure described by Westerfield, J. Biol. Chem. 161:495 (1945). To each tube was added sequentially 100 microliters 50 percent NaOH, 150 microliters 0.5 percent creatine, and 150 microliters 5 percent alpha-napthol (in 2.5N NaOH). Color development was accelerated by incubation at 55° for 10 minutes. Tubes were then centrifuged, and the optical density was read at 530 nm. Background optical densities, which were subtracted from the optical density values of the reactions, were determined for each extract from parallel assays to which the enzyme extract was added after the addition of 6N H2 SO4. Protein concentrations were measured with Bio-Rad Protein Assay reagent with bovine serum albumin as a standard. Data points and specific activities, which are set forth below and in FIG. 2, represent the average values of at least three independent determinations. ALS activities are presented in FIG. 2 as percent activity in the absence of herbicide.

[2] = molecular target: T2, acetolactate synthase (ALS), Isolate 7 (+/+) extract (Nicotiana tabacum, UniProt P09114); assay: ALS activity assay in cell extracts; format: biochemical; conditions: read-out: Uninhibited activity (%) in the Presence of Chlorsulfuron
T2 construct: ALS activity was then assayed in extracts prepared from these cell suspension cultures; endogenous in cells; host or cells: N. tabacum cv; Xanthi cell suspension cultures (H1 parental haploid line; +/+ segregants), 0-50% ammonium sulfate fraction of the extract
T2 sequence (P09114 92-664): T1 sequence (P09114 92-664)
Method: as §1
ALS activity was assayed in a total volume of 500 microliters containing 100 microliters of the column eluate, 65 mM potassium phosphate buffer (pH 7.5) containing 10 mM MgCl2, 40 mM sodium pyruvate, 250 micromolar thiamine pyrophosphate, 23 micromolar FAD, and 1, 5, 10, 50, 100, 500 or 1000 ppb chlorsulfuron or sulfometuron-methyl. […] Acetoin content was then measured by a modification of the procedure described by Westerfield, J. Biol. Chem. 161:495 (1945). […] Tubes were then centrifuged, and the optical density was read at 530 nm. Background optical densities, which were subtracted from the optical density values of the reactions, were determined for each extract from parallel assays to which the enzyme extract was added after the addition of 6N H2 SO4. Protein concentrations were measured with Bio-Rad Protein Assay reagent with bovine serum albumin as a standard. […]
Responses to chlorsulfuron were determined for ALS activities in extracts of cells suspension cultures derived from nine individuals that differed with resepct to the S4 mutation. […] Callus and plant phenotypes were determined by growth responses of cell cultures and seedlings, respectively, on herbicide-supplemented medium. […]

[3] = tested on: pea seedlings and root cultures; conditions: medium supplementation; cited from earlier work
[4] = tested on: highly resistant tobacco cell line "A"; assay: Growth test of highly resistant cell line; format: cell-based, Nicotiana tabacum
Text: Resistant colonies were selected as they appeared and transferred to medium containing this same elevated level of sulfometuron-methyl. Several cell lines that continued to grow during subsequent passages in the presence of 200 ppb of the herbicide were isolated. […] A large part of this resistance is the result of the S4 mutation, for which this cell line is homozygous. However, because cell line A is inhibited by 100 ppb sulfometuron-methyl to approximatey the same degree as its parent S4/S4 is inhibited by 10 ppb, it appears that the new event increased resistance ten-fold beyond that conferred by the S4/S4 genotype.

Salmonella typhimurium = conditions: in the presence of valine; reversed by isoleucine; cited from earlier work

Row | SMILES | remaining ALS activity (% of uninhibited) at 0.01 ppm ([1]; 10 ppb, Isolate H1 (+), read-out: Uninhibited activity (%) in the Presence of Chlorsulfuron) | remaining ALS activity (% of uninhibited) at 0.03 ppm ([1]; 30 ppb, Isolate H1 (+), read-out: Uninhibited activity (%) in the Presence of Chlorsulfuron) | remaining ALS activity (% of uninhibited) at 0.1 ppm ([1]; 100 ppb, Isolate H1 (+), read-out: Uninhibited activity (%) in the Presence of Chlorsulfuron) | IC50 ([1]; H1 cell line extract, read-out: concentration inhibiting ALS activity 50 percent (converted)) | remaining ALS activity (% of uninhibited) at 0.01 ppm ([2]; 10 ppb) | remaining ALS activity (% of uninhibited) at 0.03 ppm ([2]; 30 ppb) | remaining ALS activity (% of uninhibited) at 0.1 ppm ([2]; 100 ppb) | reversal of growth inhibition [3] | increase of resistance beyond that conferred by the S4/S4 genotype ([4]; 100 ppb on cell line A versus 10 ppb on S4/S4) | activity at 0.001 µg/mL ([4]; Nicotiana tabacum, sulfometuron-methyl 1 ppb, cell line "A", read-out: % of fresh weight at 0 ppb) | activity at 0.01 µg/mL ([4]; Nicotiana tabacum, sulfometuron-methyl 10 ppb, cell line "A", read-out: % of fresh weight at 0 ppb) | activity at 0.1 µg/mL ([4]; Nicotiana tabacum, sulfometuron-methyl 100 ppb, cell line "A", read-out: % of fresh weight at 0 ppb) | activity at 1 µg/mL ([4]; Nicotiana tabacum, sulfometuron-methyl 1000 ppb, cell line "A", read-out: % of fresh weight at 0 ppb) | concentration allowing growth relative to concentration that completely inhibits a normal cell line ([4]; growth at a greatly reduced rate) | Fr. wt. ([4]; sulfometuron-methyl 1 ppb, cell line "A") | Fr. wt. ([4]; sulfometuron-methyl 10 ppb, cell line "A") | Fr. wt. ([4]; sulfometuron-methyl 100 ppb, cell line "A") | Fr. wt. ([4]; sulfometuron-methyl 1000 ppb, cell line "A") | growth effect (Salmonella typhimurium)
1 | COc1nc(C)nc(NC(=O)NS(=O)(=O)c2ccccc2Cl)n1 [Chlorsulfuron, chlorsulfuron] | 40% | 23% | 18% | ~14 nM | 36% | 22% | 16% | prevented by supplementation of the medium with isoleucine and valine | – | – | – | – | – | – | – | – | – | – | –
2 | COC(=O)c1ccccc1S(=O)(=O)NC(=O)Nc1nc(C)cc(C)n1 [Sulfometuron-methyl, sulfometuron-methyl] | – | – | – | – | – | – | – | – | ten-fold | 90% | 74% | 24% | 10% | 1000 times | 2379 ± 243 mg | 1952 ± 133 mg | 629 ± 72 mg | 263 ± 83 mg | inhibits growth
